# According to publication PMC4457643 (Biochimica et biophysica acta, 2015):
# Where two headings read alike, the source gives them in different places.
# Tests used:
# [1] = biological target: T1, CcP(triVal) (Saccharomyces cerevisiae, UniProt P00431, H119V/R115V/W118V); assay: biochemical; type: binding, yeast; conditions: for share of absorbance change, high-affinity (KD1) phase / share of absorbance change, low-affinity (KD2) phase: pH 7.0
# [2] = biological target: T2, CcP(triLeu) (Saccharomyces cerevisiae, UniProt P00431, H119L/R115L/W118L); assay: biochemical; type: binding, yeast
# [3] = biological target: T3, CcP(triAla) (Saccharomyces cerevisiae, UniProt P00431, H119A/R115A/W118A); assay: biochemical; type: binding, yeast; conditions: for share of absorbance change, high-affinity (KD1) phase / share of absorbance change, low-affinity (KD2) phase: pH 7.0
# [4] = free ligand; cited from earlier work
# [5] = biological target: T2, CcP(triLeu); assay: Stopped-flow kinetics of imidazole binding to CcP; parameters: species or system yeast; conditions: for pKa1 for ka^app / pKa2 for ka^app: fit to Eq. 4 with pKa1 ≤ pKa2
# [6] = biological target: T1, CcP(triVal); assay: Stopped-flow kinetics of imidazole binding to CcP; parameters: species or system yeast; conditions: for pKa1 for ka^app / kd^app, k^acid (low pH limit): fit to Eq. 4; for ka^app, k^acid (low pH value): fit to Eq. 4, 0.10 M ionic strength, 25 °C; for ka^app / kd^app / kmax: pH 7
# [7] = biological target: T3, CcP(triAla); assay: Stopped-flow kinetics of imidazole binding to CcP; parameters: species or system yeast
# [8] = read-out: KD2 (low-affinity phase), pH 7.0, 0.10 M ionic strength potassium phosphate buffer
# [9] = fast phase, fit to Eq. 4, 0.10 M ionic strength, 25 °C
# [10] = fast phase, listed as imidazole
# [11] = slow phase, single-ionization fit
# [12] = read-out: KD1 (high-affinity phase), pH 7.0, 0.10 M ionic strength potassium phosphate buffer
# [13] = read-out: KD1acid (low pH limit of KD1), fit of pH dependence pH 4-8 to Eq. 2
# [14] = read-out: KD1base (high pH limit of KD1), fit of pH dependence pH 4-8 to Eq. 2
# [15] = read-out: KD2base (high pH limit of KD2), fit of pH dependence pH 4-8 to Eq. 2
# [16] = slow phase, listed as imidazole
# T2 sequence (P00431 68-361 R115L/W118L/H119L): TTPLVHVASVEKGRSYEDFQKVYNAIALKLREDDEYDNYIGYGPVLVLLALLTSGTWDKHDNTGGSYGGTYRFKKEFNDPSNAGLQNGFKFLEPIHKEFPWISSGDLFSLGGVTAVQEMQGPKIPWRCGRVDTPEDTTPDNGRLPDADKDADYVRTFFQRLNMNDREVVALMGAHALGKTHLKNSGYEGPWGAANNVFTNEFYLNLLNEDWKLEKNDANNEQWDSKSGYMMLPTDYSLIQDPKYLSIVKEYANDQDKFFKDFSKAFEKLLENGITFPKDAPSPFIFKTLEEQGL
# T3 sequence (P00431 68-361 R115A/W118A/H119A): as the sequence (P00431 68-361 R115L/W118L/H119L) above, with L48A, L51A, L52A counted along it
# T1 sequence (P00431 68-361 R115V/W118V/H119V): as the sequence (P00431 68-361 R115L/W118L/H119L) above, with L48V, L51V, L52V counted along it
smiles,measurement,setting,value
"Cn1ccnc1 [1-Methylimidazole, 1-methylimidazole]",Kd,[1],0.16 mM
same,"share of absorbance change, high-affinity (KD1) phase",[1],77%
same,"share of absorbance change, low-affinity (KD2) phase",[1],23%
same,Kd,[1]; [8],6.8 mM
same,Kd,[2],39 mM
same,Kd,[3],0.35 mM
same,"share of absorbance change, high-affinity (KD1) phase",[3],30%
same,"share of absorbance change, low-affinity (KD2) phase",[3],70%
same,"share of absorbance change, low-affinity (KD2) phase",[3]; listed as MIM,about 70%
"O=[N+]([O-])c1c[nH]cn1 [4-Nitroimidazole, 4-nitroimidazole]",Kd,[1],0.56 mM
same,Kd,[2],35 mM
same,Kd,[3],16 mM
same,pKa for the imidazole/imidazolate ionization,[4],9.5
c1c[nH]cn1 [Imidazole],"ka^app, k^acid (low pH value)",[5]; [9],2.2 ± 0.4 M^−1 s^−1
same,"ka^app, k^base (high pH value)",[5]; [9],0 ± 25 M^−1 s^−1
same,"ka^app, k^base (high pH value)","[5]; fast phase, fit to Eq. 4, 0.10 M ionic strength, 25 °C, listed as imidazole",less than 25 M^−1 s^−1
same,pKa1 for ka^app,[5]; fast phase,7.3 ± 0.9
same,pKa2 for ka^app,[5]; fast phase,7.3 ± 1.5
same,pKa1 for ka^app,[5]; [10],7.3
same,pKa2 for ka^app,[5]; [10],7.3
same,ka^app,"[5]; fast phase, pH 7",36 ± 4 M⁻¹ s⁻¹
same,kd^app,"[5]; fast phase, pH 7",0.24 ± 0.03 s⁻¹
same,"kd^app, pH-independent average value","[5]; fast phase, pH range 4 to 8",0.38 ± 0.12 s^−1
same,"kmax, average value","[5]; slow phase, averaged over pH range 4 to 8",0.048 ± 0.018 s⁻¹
same,kmax,"[5]; slow phase, pH 7",0.070 ± 0.002 s⁻¹
same,"kmax (= kslow), k^acid (low pH value)",[5]; [11],0.032 ± 0.003 s^−1
same,"kmax (= kslow), k^neut (high pH value)",[5]; [11],0.077 ± 0.011 s^−1
same,pKa1 for kmax,[5]; [11],6.7 ± 0.4
same,high-affinity imidazole binding stronger than for wild-type CcP,[1]; pH 7,4.7 orders of magnitude
same,"share of absorbance change, high-affinity (KD1) phase",[1],68%
same,"share of absorbance change, low-affinity (KD2) phase",[1],32%
same,"share of absorbance change, high-affinity phase, average",[1]; pH range 4 to 8,67 ± 10%
same,Kd,[1]; [12],0.083 mM
same,Kd,[1]; [13],9.6 ± 5.5 mM
same,Kd,[1]; [14],0.096 ± 0.007 mM
same,Kd,"[1]; read-out: KD1base (high pH limit of KD1), fit of pH dependence to Eq. 2",0.096 ± 0.007 mM
same,Kd,[1]; [8],12 mM
same,Kd,[1]; [15],6.7 ± 2.3 mM
same,pKa1 for ka^app,[6]; fast phase,6.2 ± 0.3
same,"ka^app, k^acid (low pH value)",[6]; fast phase,5.4 ± 16.2 M^−1 s^−1
same,"ka^app, k^acid (low pH value)",[6]; [10],5.4 M^−1 s^−1
same,ka^app,[6]; fast phase,170 ± 7 M⁻¹ s⁻¹
same,kd^app,[6]; fast phase,0.32 ± 0.01 s⁻¹
same,kmax,[6]; fast phase,1.9 ± 0.1 s⁻¹
same,"kd^app, pH-independent average value","[6]; fast phase, pH range 4 to 8",0.25 ± 0.08 s^−1
same,"kmax, pH-independent value","[6]; fast phase, pH range 4 to 8",1.5 ± 0.3 s^−1
same,"kmax, pH-independent value","[6]; fast phase, pH range 4 to 8, listed as imidazole",1.5 s^−1
same,"kd^app, k^acid (low pH limit)",[6]; slow phase,0.026 ± 0.009 s^−1
same,pKa1 for ka^app,[6]; slow phase,7.6 ± 0.3
same,"ka^app, k^acid (low pH value)",[6]; slow phase,1.3 ± 0.7 M^−1 s^−1
same,"ka^app, k^acid (low pH value)",[6]; [16],1.3 M^−1 s^−1
same,"kd^app, k^acid (low pH limit)",[6]; [16],0.026 s^−1
same,ka^app,[6]; slow phase,30 ± 10 M⁻¹ s⁻¹
same,kd^app,[6]; slow phase,"0.050 ± 0,006 s^−1"
same,kmax,[6]; slow phase,0.16 ± 0.08 s⁻¹
same,"kmax, pH-independent value","[6]; slow phase, pH range 4 to 8",0.17 ± 0.04 s^−1
same,"kmax, pH-independent value","[6]; slow phase, pH range 4 to 8, listed as imidazole",0.17 s^−1
same,"share of absorbance change, high-affinity (KD1) phase",[2]; pH 7.0,78%
same,"share of absorbance change, low-affinity (KD2) phase",[2]; pH 7.0,22%
same,Kd,[2]; [12],0.6 mM
same,Kd,[2]; [14],0.22 ± 0.15 mM
same,Kd,[2]; [8],17 mM
same,"share of absorbance change at 414 nm, low-affinity phase",[3]; between pH 4 and 8,75 ± 8%
same,"share of absorbance change, low-affinity phase",[3]; pH 5.5,76%
same,"share of absorbance change, high-affinity (KD1) phase",[3],17%
same,"share of absorbance change, low-affinity (KD2) phase",[3],83%
same,Kd,"[3]; read-out: KD1 (high-affinity phase), pH 5.5, 25 °C",0.1 ± 0.03 mM
same,Kd,[3]; [12],0.22 mM
same,Kd,[3]; [13],> 25 mM
same,Kd,[3]; [14],0.13 ± 0.06 mM
same,Kd,[3]; [8],12 mM
same,Kd,"[3]; read-out: KD2 (low-affinity phase), pH 7.0, 25 °C",11 ± 1 mM
same,Kd,[3]; [15],6.4 ± 0.7 mM
same,pKa1 for ka^app,"[7]; fast phase, fit to Eq. 4",7.0 ± 0.2
same,"ka^app, k^acid (low pH value)",[7]; [9],2.2 ± 0.4 M^−1 s^−1
same,ka^app,"[7]; fast phase, pH 7",80 ± 7 M⁻¹ s⁻¹
same,kd^app,"[7]; fast phase, pH 7",0.43 ± 0.04 s⁻¹
same,"kd^app, pH-independent average value","[7]; fast phase, pH range 4.0 to 8.0",0.47 ± 0.10 s^−1
same,kmax,"[7]; slow phase, pH 7",0.050 ± 0.009 s⁻¹
same,"kmax (= kslow), pH-independent average value","[7]; slow phase, pH range 4.0 to 8.0",0.032 ± 0.011 s^−1
same,"kmax (= kslow), pH-independent average value","[7]; slow phase, pH range 4.0 to 8.0, listed as imidazole",(3.2 ± 1.1) × 10^−2 s^−1
